In ChEMBL document CHEMBL1139863, “Synthesis and in vitro antiprotozoal activities of dicationic 3,5-diphenylisoxazoles” (J Med Chem, 2007):

What was measured:
[1] = tested on: Trypanosoma brucei rhodesiense; test: Antitrypanosomal activity against Trypanosoma brucei rhodesiense; assay type: functional, organism-based
[2] = tested on: Plasmodium falciparum; test: Antiplasmodial activity against chloroquine-resistant Plasmodium falciparum K1; assay type: functional, organism-based
[3] = tested on: L6; test: Cytotoxicity against rat L6 cells; assay type: cell-based

SMILES | IC50 [1] | IC50 [2] | IC50 [3]
N=C(N)c1cccc(-c2cc(-c3ccc(C(=N)N)cc3Cl)no2)c1 | 0.0116 µM | 0.0141 µM | 87.4 µM
N=C(N)c1ccc(-c2cc(-c3ccc(C(=N)N)cc3Cl)no2)cc1 | 0.0232 µM | 0.0555 µM | 5.7 µM
N=C(N)c1ccc(-c2cc(-c3ccc(C(=N)N)cc3[N+](=O)[O-])no2)cc1 | 0.0324 µM | 0.0149 µM | 22.2 µM
COc1cc(C(=N)N)ccc1-c1cc(-c2ccc(C(=N)N)cc2OC)on1 | 0.013 µM | 0.0061 µM | 84.8 µM
COc1cc(C(=N)N)ccc1-c1cc(-c2ccc(C(=N)N)cc2)no1 | 0.0106 µM | 0.006 µM | 122 µM
N=C(N)c1ccc(-c2ccc(-c3ccc(C(=N)N)cc3)o2)cc1 [FURAMIDINE] | – | – | 16.4 µM
c1cc(C2=NCCN2)cc(-c2cc(-c3ccc(C4=NCCN4)cc3)on2)c1 | 1.55 µM | 0.0512 µM | 65 µM
CC(C)NC(=N)c1cccc(-c2cc(-c3cccc(C(=N)NC(C)C)c3)on2)c1 | 4.98 µM | 0.0431 µM | > 180 µM
c1cc(C2=NCCN2)cc(-c2cc(-c3ccc(C4=NCCN4)cc3)no2)c1 | 0.974 µM | 0.077 µM | 30.2 µM
N=C(N)c1cccc(-c2cc(-c3cccc(C(=N)N)c3)on2)c1 | 0.029 µM | 0.0092 µM | 153 µM
N=C(N)c1ccc(-c2cc(-c3ccc(C(=N)N)cc3[N+](=O)[O-])on2)cc1 | 0.0139 µM | 0.0149 µM | 15.8 µM
CC(C)NC(=N)c1ccc(-c2cc(-c3cccc(C(=N)NC(C)C)c3)no2)cc1 | 0.488 µM | 0.0106 µM | > 187 µM
Nc1nc(N)nc(Nc2ccc([As]3SCC(CO)S3)cc2)n1 (centres undefined) [MELARSOPROL] | 0.0064 µM | – | –
COc1cc(C(=N)N)ccc1-c1cc(-c2cccc(C(=N)N)c2)on1 | 0.0059 µM | 0.0089 µM | 136 µM
N=C(N)c1ccc(-c2cc(-c3ccccc3)on2)cc1 | 1.12 µM | > 3.3 µM | 18.5 µM
N=C(N)c1ccc(-c2cc(-c3cccc(C(=N)N)c3)on2)cc1 | 0.0035 µM | 0.0025 µM | 31.2 µM
N=C(N)c1cccc(-c2cc(-c3ccc(C(=N)N)cc3[N+](=O)[O-])on2)c1 | 0.009 µM | 0.0259 µM | 48 µM
N=C(N)c1cccc(-c2cc(-c3ccc(C(=N)N)cc3[N+](=O)[O-])no2)c1 | 0.0194 µM | 0.0304 µM | > 206 µM
N=C(N)c1ccc(-c2cc(-c3ccc(C(=N)N)cc3)on2)cc1 | 0.0051 µM | 0.0226 µM | 2.1 µM
N=C(N)c1ccc(-c2cc(-c3ccccc3)no2)cc1 | 1.72 µM | > 3.3 µM | 19.1 µM
N=C(N)c1ccc(-c2cc(-c3ccc(C(=N)N)cc3Cl)on2)cc1 | 0.0155 µM | 0.0079 µM | 41 µM
N=C(N)c1cccc(-c2cc(-c3ccc(C(=N)N)cc3Cl)on2)c1 | 0.0063 µM | 0.0187 µM | 82.7 µM
c1cc(-c2cc(-c3ccc(C4=NCCN4)cc3)on2)ccc1C1=NCCN1 | 0.0872 µM | 0.0041 µM | 1.8 µM
COc1cc(C(=N)N)ccc1-c1cc(-c2cccc(C(=N)N)c2)no1 | 0.0065 µM | 0.0035 µM | 177 µM
CC(C)NC(=N)c1ccc(-c2cc(-c3ccc(C(=N)NC(C)C)cc3)on2)cc1 | 0.196 µM | 0.0066 µM | > 176 µM
C[C@@H]1CC[C@H]2[C@@H](C)C(=O)O[C@@H]3O[C@@]4(C)CC[C@@H]1[C@]32OO4 [ARTEMISININ] | – | 0.0067 µM | –
c1cc(C2=NCCN2)cc(-c2cc(-c3cccc(C4=NCCN4)c3)on2)c1 | 18.5 µM | 0.227 µM | 26.2 µM
COc1cc(C(=N)N)ccc1-c1cc(-c2ccc(C(=N)N)cc2)on1 | 0.0164 µM | 0.0663 µM | 92.6 µM
N=C(N)c1ccc(-c2cc(-c3cccc(C(=N)N)c3)no2)cc1 | 0.0063 µM | 0.0578 µM | 24.1 µM
CC(C)NC(=N)c1ccc(-c2cc(-c3cccc(C(=N)NC(C)C)c3)on2)cc1 | 0.316 µM | 0.0347 µM | > 186 µM
